The subject of data set [1] is mitochondria in HeLa cells. As to the kind of experiment: Colocalization test of SiR-Mito probes with MitoTracker green in HeLa cells. Format: cell-based, human. The settings on record: 1 μM probe, 1 h; for Mitochondria Targeting (Pearson coefficient for colocalization with MitoTracker green): 0.5 μM MitoTracker green. The protocol: HeLa cells were incubated with cell culture media containing 1 μM SiR-Mito probe, and 0.5 μM MitoTracker green. After 1 h, HeLa cells were washed three times with 1×PBS for and observed with a LEICA DMi8 fluorescent microscope. Each experiment was observed using 512-542 nm emitter for FITC channel (for MitoTracker Green), and 663-738 nm exciter, 545-625 nm emitter for Cy5 channel (for SiR-Mito probes). Scale bar: 50 μm.
HeLa human cervical cancer cells were cultured in Dulbecco's modified eagle media (DMEM, GIBCO) containing 10% fetal bovine serum (FBS, GIBCO) and 1% penicillin (GIBCO) at 37° C. in a humidified incubator with 5% CO2. For the fluorescence microscope imaging, cells were harvested using TrypLE™ Express (GIBCO) and resuspended in fresh culture medium. Harvested cells with a density of 4.0×10^3 cells/well were seeded on a HeLa 96 black well plate (CORNING) and incubated for 24 h. Cells were incubated with SiR-Mito probes (1 μM) and MitoTracker Green (0.5 μM) for 60 min. After the incubation, cells were washed with 1×PBS for three times and observed with inverted fluorescence microscope (DMi8, LEICA). Each experiment was observed using a 325-375 nm exciter, 435-485 nm emitter for DAPI channel, 460-500 nm exciter, 512-542 nm emitter for FITC channel, 541-551 nm exciter, 565-605 nm emitter for Rhodamine channel, and 663-738 nm exciter, 545-625 nm emitter for Cy5 channel.
To determine the effect of probe hydrophobicity on the efficiency of targeting to mitochondria, the Pearson coefficient for colocalization of SiR-Mito probes and MitoTracker green, a commercial fluorescent mitochondrial bioprobe, was measured (FIG. 1). For the colocalization test, human cervical cancer HeLa cells were seeded on 96-well plates and incubated for 1 h with 1 μM of each different SiR-Mito probe and 0.5 μM MitoTracker green, washed briefly with 1×PBS, and imaged with a LEICA DMi8 fluorescent microscope using the 40× objective.

A short description of data set [2]: Photophysical properties (excitation/emission wavelength, absolute quantum yield, fluorescence intensity in PBS). Format: physicochemical. The settings on record: for Φ (quantum yield): absolute quantum yield. How it is done: All reactions were carried out under an atmosphere of nitrogen or argon in air-dried glassware with magnetic stirring. Air- and/or moisture-sensitive liquids were transferred with syringe. Organic solutions were concentrated by rotary evaporation at 25-60° C. at 15-30 torr. All solvents and common materials were purchased from suppliers and used without further purification. Column chromatography was carried out as “Flash Chromatography” using Biotage MPLC machine. ^1H NMR and ^13C NMR data were recorded on an JEOL ECZ-600R Magnetic Resonance System (600 MHz) in Ajou University. Recorded shifts are reported in parts per million (6): Chemical shift, multiplicity (s=singlet, d=doublet, t=triplet, q=quartet, m=multiplet, br=broad), coupling constant (J, Hz) and integration. Low resolution mass spectrometry (LRMS) was obtained by LC/MS system, Finnigan MSQplus Surveyer (Thermo Scientific) or 6120 Quadrupole LC/MS (Agilent Technologies). The progress of reaction was monitored using thin layer chromatography (TLC) (silica gel 60, F254 0.25 mm), and components were visualized by observation under UV light (254 and 365 nm) or by treating the TLC plates with Phosphonolybdic acid (PMA), KMnO4, or ninhydrin followed by heating. Cell culture reagents including fatal bovine serum, culture media, and antibiotic-antimycotic solution were purchased from GIBCO. MitoTracker Green, and Hoechst were purchased from Invitrogen. The culture dish and glassbottom dish were purchased from CORNING, and SPL. All spectra experiments were performed in a 1×1 cm quartz cuvette. Fluorescence emission spectra were recorded on JASCO FP-8200 spectrofluorometer, and UV absorption spectra were recorded on JASCO V-670 spectrophotometer. Absolute quantum yield was measured by QE-2000 (Otsuka Electronics).

The values that follow come from patent publication US11761894B2, “Silicon-rhodamine fluorescent probe containing hydrophobic group and use thereof” (AJOU UNIVERSITY INDUSTRY—ACADEMIC COOPERATION FOUNDATION, priority 2019, dated 2023).

`Cc1ccc(C(=O)NCCO)cc1C1=C2C=CC(=[N+](C)C)C=C2[Si](C)(C)c2cc(N(C)C)ccc21` [SiR-Mito 1, N-(7-(dimethylamino)-10-(5-((2-hydroxyethyl)carbamoyl)-2-methylphenyl)-5,5-dimethyldibenzo[b,e]silin-3(5H)-ylidene)-N-methylmethanaminium]: the “Intracellular fluorescence (SiR channel)” value in data set [1] is “absence of fluorescence signal”. Also, in data set [2], the “Em (emission wavelength)” value is given as 668 nm, the “Ex (excitation wavelength)” value came out at 661 nm and the “Φ (quantum yield)” value amounted to 0.32.
`CCNC(=O)c1ccc(C)c(C2=C3C=CC(=[N+](C)C)C=C3[Si](C)(C)c3cc(N(C)C)ccc32)c1` [SiR-Mito 2, N-(7-(dimethylamino)-10-(5-(ethylcarbamoyl)-2-methylphenyl)-5,5-dimethyldibenzo[b,e]silin-3(5H)-ylidene)-N-methylmethanaminium]: in data set [1], the “Mitochondria Targeting (Pearson coefficient for colocalization with MitoTracker green)” value (from here on “Mitochondria Targeting”) is listed as “* (* 0.7 ≤ R < 0.8)”. Besides, in data set [2], the “Em (emission wavelength)” value was found to be 668 nm, the “Ex (excitation wavelength)” value is 662 nm and the “Φ (quantum yield)” value worked out at 0.40.
On to `CCCCNC(=O)c1ccc(C)c(C2=C3C=CC(=[N+](C)C)C=C3[Si](C)(C)c3cc(N(C)C)ccc32)c1` [SiR-Mito 3, N-(10-(5-(butylcarbamoyl)-2-methylphenyl)-7-(dimethylamino)-5,5-dimethyldibenzo[b,e]silin-3(5H)-ylidene)-N-methylmethanaminium], for which, in data set [2], the “Em (emission wavelength)” value was determined as 665 nm, the “Ex (excitation wavelength)” value is given as 652 nm and the “Φ (quantum yield)” value was found to be 0.29.
Take `Cc1ccc(C(=O)NCc2ccccc2)cc1C1=C2C=CC(=[N+](C)C)C=C2[Si](C)(C)c2cc(N(C)C)ccc21` [SiR-Mito 4, N-(10-(5-(benzylcarbamoyl)-2-methylphenyl)-7-(dimethylamino)-5,5-dimethyldibenzo[b,e]silin-3(5H)-ylidene)-N-methylmethanaminium]: the “Mitochondria Targeting” value in data set [1] is on record as “* (* 0.7 ≤ R < 0.8)”. In data set [2], the “Em (emission wavelength)” value was found to be 666 nm, the “Ex (excitation wavelength)” value is 651 nm and the “Φ (quantum yield)” value was found to be 0.30.
Regarding `Cc1ccc(C(=O)NCCc2ccccc2)cc1C1=C2C=CC(=[N+](C)C)C=C2[Si](C)(C)c2cc(N(C)C)ccc21` [SiR-Mito 6, N-(7-(dimethylamino)-5,5-dimethyl-10-(2-methyl-5-(phenethylcabamoyl)phenyl)dibenzo[b,e]silin-3(5H)-ylidene)-N-methylmethanaminium], in data set [1], the “Mitochondria Targeting” value is listed as “*** (*** 0.9 ≤ R)”. In data set [2], the “Em (emission wavelength)” value worked out at 668 nm, the “Ex (excitation wavelength)” value stood at 651 nm and the “Φ (quantum yield)” value is 0.30.
Consider `Cc1ccc(C(=O)NC(C)(C)CC(C)(C)C)cc1C1=C2C=CC(=[N+](C)C)C=C2[Si](C)(C)c2cc(N(C)C)ccc21` [SiR-Mito 7, N-(7-(dimethylamino)-5,5-dimethyl-10-(2-methyl-5-((2,4,4-trimethylpentan-2-yl)carbamoyl)phenyl)dibenzo[b,e]silin-3(5H)-ylidene)-N-methylmethanaminium], for which the “Mitochondria Targeting” value in data set [1] is given as “*** (*** 0.9 ≤ R)”. Besides, in data set [2], the “Em (emission wavelength)” value stood at 667 nm, the “Ex (excitation wavelength)” value worked out at 650 nm and the “Φ (quantum yield)” value is reported as 0.29.
With `Cc1ccc(C(=O)NCCC2CCCCC2)cc1C1=C2C=CC(=[N+](C)C)C=C2[Si](C)(C)c2cc(N(C)C)ccc21` [SiR-Mito 9, N-(10-(5-((2-cyclohexylethyl)carbamoyl)-2-methylphenyl)-7-(dimethylamino)-5,5-dimethyldibenzo[b,e]silin-3(5H)-ylidene)-N-methylmethanaminium], the “Mitochondria Targeting” value in data set [1] was “*** (*** 0.9 ≤ R)”. Further, in data set [2], the “Em (emission wavelength)” value came out at 666 nm, the “Ex (excitation wavelength)” value was determined as 652 nm and the “Φ (quantum yield)” value came out at 0.26.
On to `CCCCCCC(C)NC(=O)c1ccc(C)c(C2=C3C=CC(=[N+](C)C)C=C3[Si](C)(C)c3cc(N(C)C)ccc32)c1` (centres unmarked) [SiR-Mito 10, N-(7-(dimethylamino)-5,5-dimethyl-10-(2-methyl-5-(octan-2-ylcarbamoyl)phenyl)dibenzo[b,e]silin-3(5H)-ylidene)-N-methylmethanaminium], for which, in data set [1], the “Mitochondria Targeting” value is “*** (*** 0.9 ≤ R)”. In data set [2], the “Em (emission wavelength)” value was 667 nm, the “Ex (excitation wavelength)” value is 654 nm and the “Φ (quantum yield)” value was 0.27.
For “N-(10-(5-((cyclohexylmethyl) carbamoyl)-2-methylphenyl)-7 (dimethylamino)-5,5-dimethyldibenzo[b,e]silin-3(5H)-ylidene)-N-methylmethanaminium [SiR-Mito 5]”, in that order: “* (* 0.7 ≤ R < 0.8)”, 669 nm, 651 nm and 0.29.
